# According to PubChem BioAssay (NCI):
#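 Tested at 5 concentrations; 48 h exposure; 96-well plates; endpoints linearly interpolated, else capped at highest concentration. Here, GI50 denotes the concentration required for 50% inhibition of growth. TGI: concentration producing complete growth inhibition.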
# Columns and labels:
# Assay in all cases: NCI tumour cell line growth inhibition, 48 h
# SK-MEL-5 melanoma = system: SK-MEL-5 melanoma
# HCC-2998 colon = system: HCC-2998 colon
# DU-145 prostate = system: DU-145 prostate
# NCI-H226 lung = system: NCI-H226 lung
# T-47D breast = system: T-47D breast
# UO-31 renal = system: UO-31 renal
# NCI-H522 lung = system: NCI-H522 lung
# MOLT-4 leukemia = system: MOLT-4 leukemia
# SK-MEL-2 melanoma = system: SK-MEL-2 melanoma
# OVCAR-8 ovarian = system: OVCAR-8 ovarian
smiles,measurement,setting,value
COc1cc(/C=C2\CN(S(=O)(=O)c3ccc(C)cc3)C/C(=C\c3cc(CN4CCCC4)c(O)c(OC)c3)C2=O)cc(CN2CCCC2)c1O,GI50,SK-MEL-5 melanoma,1610 nM
same,TGI,SK-MEL-5 melanoma,2970 nM
same,GI50,HCC-2998 colon,1640 nM
same,TGI,HCC-2998 colon,3080 nM
same,GI50,DU-145 prostate,926 nM
same,TGI,DU-145 prostate,2150 nM
same,GI50,NCI-H226 lung,1630 nM
same,TGI,NCI-H226 lung,3160 nM
same,GI50,T-47D breast,1420 nM
same,TGI,T-47D breast,3790 nM
same,GI50,UO-31 renal,1510 nM
same,TGI,UO-31 renal,2960 nM
same,GI50,NCI-H522 lung,433 nM
same,TGI,NCI-H522 lung,2300 nM
same,GI50,MOLT-4 leukemia,379 nM
same,TGI,MOLT-4 leukemia,2920 nM
same,GI50,SK-MEL-2 melanoma,1870 nM
same,TGI,SK-MEL-2 melanoma,4050 nM
same,GI50,OVCAR-8 ovarian,710 nM
same,TGI,OVCAR-8 ovarian,2920 nM
